Measurements from article PMC7075522 (ACS infectious diseases, 2016).

Assays:
[1] = system: DENV in BHK-21 and NIH3T3 cells; settings: cited from earlier work
[2] = system: sera of 24 SARS-positive patients; type: binding, human

| Substance | ADE of DENV [1] | Immunoreactivity with sera [2] |
| --- | --- | --- |
| CPFLKQNEPEDIDCW | blocked this ADE in a dose-dependent manner |  |
| LYQDVN [S597–602] |  | immunoreactive with the tested sera of 24 SARS-positive patients |
